Source: PMC11871066, “Structure-based discovery of hydrocarbon-stapled paxillin peptides that block FAK scaffolding in cancer” (Nature Communications, 2025)
Where two headings read alike, the source gives them in different places.

Key:
Assay in all cases: Eurofins KINOMEscan profiling, 97 kinases
[1] = target: 97 kinases (kinase named in endpoint) (Homo sapiens, UniProt Q9P1W9); conditions: read-out: % Ctrl, PIM2
Method: (§1) This experiment was performed by Eurofins KINOMEscan™ Profiling Service. […] The lysates were centrifuged and filtered, the remaining kinases were produced in HEK-293 cells and subsequently tagged with DNA for qPCR detection. […] The liganded beads were blocked with excess biotin and washed with blocking buffer (SeaBlock (Pierce), 1% BSA, 0.05% Tween-20, 1 mM DTT). […] Test compounds were prepared as 100x stocks in 100% DMSO and directly diluted into the assay. All reactions were performed in polypropylene 384-well plates in a final volume of 0.02 ml. […] The kinase concentration in the eluates was measured by qPCR.
(§2) (negative control signal - positive control signal)] x 100. ( b) AccompanyingSelectivity Scores or S -scores
(§3) which are quantitative measures of compound selectivity. They are calculated by dividing the number of
(§4) kinases that compounds bind to by the total number of distinct kinases tested, excluding mutant variants.
(§5) S(35)= ( num ber of non -mutant kinases with %Ctrl <35)/(number of non- mutant kinases tested)], S(10)=
(§6) non- mutant kinases with %Ctrl <1)/(number of non- mutant kinases tested)].

[2] = target: 97 kinases (kinase named in endpoint) (Homo sapiens, UniProt P48736); conditions: read-out: % Ctrl, PIK3CG
Method: as §1, §2, §3, §4, §5, §6

[3] = target: 97 kinases (kinase named in endpoint) (Homo sapiens, UniProt Q00536); conditions: read-out: % Ctrl, PCTK1
Method: as §1, §2, §3, §4, §5, §6

[4] = target: 97 kinases (kinase named in endpoint) (Homo sapiens, UniProt P21802); conditions: read-out: % Ctrl, FGFR2
Method: as §1, §2, §3, §4, §5, §6

[5] = target: 97 kinases (kinase named in endpoint) (Homo sapiens, UniProt O15111); conditions: read-out: % Ctrl, IKK-alpha
Method: as §1, §2, §3, §4, §5, §6

[6] = target: 97 kinases (kinase named in endpoint) (Homo sapiens, UniProt P16234); conditions: read-out: % Ctrl, PDGFRA
Method: as §1, §2, §3, §4, §5, §6

[7] = target: 97 kinases (kinase named in endpoint) (Homo sapiens, UniProt P12931); conditions: read-out: % Ctrl, SRC
Method: as §1, §2, §3, §4, §5, §6

[8] = target: 97 kinases (kinase named in endpoint) (Homo sapiens, UniProt P53350); conditions: read-out: % Ctrl, PLK1
Method: as §1, §2, §3, §4, §5, §6

[9] = target: 97 kinases (kinase named in endpoint) (Homo sapiens, UniProt P29317); conditions: read-out: % Ctrl, EPHA2
Method: as §1, §2, §3, §4, §5, §6

[10] = target: 97 kinases (kinase named in endpoint) (Homo sapiens, UniProt Q9Y6R4); conditions: read-out: % Ctrl, MAP3K4
Method: as §1, §2, §3, §4, §5, §6

[11] = target: 97 kinases (kinase named in endpoint) (Homo sapiens, UniProt P80192); conditions: read-out: % Ctrl, MLK1
Method: as §1, §2, §3, §4, §5, §6

[12] = target: 97 kinases (kinase named in endpoint) (Homo sapiens, UniProt P04049); conditions: read-out: % Ctrl, RAF1
Method: as §1, §2, §3, §4, §5, §6

[13] = target: 97 kinases (kinase named in endpoint) (Homo sapiens, UniProt P08069); conditions: read-out: % Ctrl, IGF1R
Sequence of 97 kinases (kinase named in endpoint) (Homo sapiens, UniProt P08069) (P08069 31-1367): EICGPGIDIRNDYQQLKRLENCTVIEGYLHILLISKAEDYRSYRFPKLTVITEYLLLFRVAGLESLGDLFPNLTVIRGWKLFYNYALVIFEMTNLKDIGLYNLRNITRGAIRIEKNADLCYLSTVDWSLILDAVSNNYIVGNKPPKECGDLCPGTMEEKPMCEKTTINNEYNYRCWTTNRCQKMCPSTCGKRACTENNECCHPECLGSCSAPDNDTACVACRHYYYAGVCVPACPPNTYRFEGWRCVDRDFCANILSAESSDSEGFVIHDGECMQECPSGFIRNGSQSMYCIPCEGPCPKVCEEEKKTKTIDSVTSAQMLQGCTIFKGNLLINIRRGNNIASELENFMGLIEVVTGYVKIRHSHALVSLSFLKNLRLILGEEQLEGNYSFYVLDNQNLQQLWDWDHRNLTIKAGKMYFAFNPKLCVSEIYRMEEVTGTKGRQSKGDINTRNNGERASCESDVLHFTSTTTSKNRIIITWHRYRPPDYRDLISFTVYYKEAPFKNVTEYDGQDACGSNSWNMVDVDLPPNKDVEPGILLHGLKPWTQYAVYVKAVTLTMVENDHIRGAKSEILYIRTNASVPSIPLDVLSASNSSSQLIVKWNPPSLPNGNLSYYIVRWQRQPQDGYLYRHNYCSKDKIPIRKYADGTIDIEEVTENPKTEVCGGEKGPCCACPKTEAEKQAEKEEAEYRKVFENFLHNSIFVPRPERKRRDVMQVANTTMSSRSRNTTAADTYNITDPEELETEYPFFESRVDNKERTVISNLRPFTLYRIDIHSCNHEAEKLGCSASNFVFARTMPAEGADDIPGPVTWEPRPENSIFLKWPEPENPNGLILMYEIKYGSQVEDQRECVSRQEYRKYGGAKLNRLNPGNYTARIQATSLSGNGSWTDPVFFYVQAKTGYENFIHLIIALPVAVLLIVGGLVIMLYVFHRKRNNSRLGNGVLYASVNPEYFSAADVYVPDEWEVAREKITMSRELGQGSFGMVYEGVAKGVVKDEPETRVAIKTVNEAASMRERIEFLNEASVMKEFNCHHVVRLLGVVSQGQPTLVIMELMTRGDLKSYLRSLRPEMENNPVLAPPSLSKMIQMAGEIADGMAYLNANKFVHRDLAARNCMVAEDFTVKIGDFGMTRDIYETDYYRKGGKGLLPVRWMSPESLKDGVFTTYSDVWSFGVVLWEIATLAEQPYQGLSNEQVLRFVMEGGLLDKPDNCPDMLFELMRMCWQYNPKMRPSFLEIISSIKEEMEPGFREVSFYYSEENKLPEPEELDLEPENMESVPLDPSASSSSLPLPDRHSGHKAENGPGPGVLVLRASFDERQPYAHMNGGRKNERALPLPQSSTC
Method: as §1, §2, §3, §4, §5, §6

[14] = target: 97 kinases (kinase named in endpoint) (Homo sapiens, UniProt Q16539); conditions: read-out: % Ctrl, p38-alpha
Method: as §1, §2, §3, §4, §5, §6

[15] = target: 97 kinases (kinase named in endpoint) (Homo sapiens, UniProt P36507); conditions: read-out: % Ctrl, MEK2
Method: as §1, §2, §3, §4, §5, §6

[16] = target: 97 kinases (kinase named in endpoint) (Homo sapiens, UniProt O00750); conditions: read-out: % Ctrl, PIK3C2B
Method: as §1, §2, §3, §4, §5, §6

[17] = target: 97 kinases (kinase named in endpoint) (Homo sapiens, UniProt P04629); conditions: read-out: % Ctrl, TRKA
Sequence of 97 kinases (kinase named in endpoint) (Homo sapiens, UniProt P04629) (P04629 33-796): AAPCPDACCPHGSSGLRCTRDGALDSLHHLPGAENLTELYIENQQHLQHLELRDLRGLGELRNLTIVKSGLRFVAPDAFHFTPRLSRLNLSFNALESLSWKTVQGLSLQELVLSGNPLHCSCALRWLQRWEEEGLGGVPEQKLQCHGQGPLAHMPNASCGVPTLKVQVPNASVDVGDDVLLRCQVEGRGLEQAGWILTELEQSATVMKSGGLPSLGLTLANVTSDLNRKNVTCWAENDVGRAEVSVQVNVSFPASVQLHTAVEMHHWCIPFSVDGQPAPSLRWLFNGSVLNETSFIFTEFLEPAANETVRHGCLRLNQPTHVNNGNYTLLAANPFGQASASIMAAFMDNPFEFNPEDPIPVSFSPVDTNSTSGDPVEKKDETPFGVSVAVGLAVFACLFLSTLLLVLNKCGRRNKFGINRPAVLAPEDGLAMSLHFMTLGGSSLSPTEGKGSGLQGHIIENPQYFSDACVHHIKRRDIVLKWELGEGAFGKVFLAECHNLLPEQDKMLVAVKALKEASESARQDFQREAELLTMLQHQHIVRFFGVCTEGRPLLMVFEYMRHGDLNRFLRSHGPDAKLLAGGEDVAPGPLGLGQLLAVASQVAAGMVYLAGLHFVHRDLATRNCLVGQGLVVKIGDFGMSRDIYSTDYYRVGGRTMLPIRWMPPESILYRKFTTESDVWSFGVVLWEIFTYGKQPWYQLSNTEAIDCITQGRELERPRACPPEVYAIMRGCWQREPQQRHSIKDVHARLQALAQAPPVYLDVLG
Method: as §1, §2, §3, §4, §5, §6

[18] = target: 97 kinases (kinase named in endpoint) (Homo sapiens, UniProt O75116); conditions: read-out: % Ctrl, ROCK2
Method: as §1, §2, §3, §4, §5, §6

[19] = target: 97 kinases (kinase named in endpoint) (Homo sapiens, UniProt O15075); conditions: read-out: % Ctrl, DCAMKL1
Sequence of 97 kinases (kinase named in endpoint) (Homo sapiens, UniProt O15075) (O15075 whole entry): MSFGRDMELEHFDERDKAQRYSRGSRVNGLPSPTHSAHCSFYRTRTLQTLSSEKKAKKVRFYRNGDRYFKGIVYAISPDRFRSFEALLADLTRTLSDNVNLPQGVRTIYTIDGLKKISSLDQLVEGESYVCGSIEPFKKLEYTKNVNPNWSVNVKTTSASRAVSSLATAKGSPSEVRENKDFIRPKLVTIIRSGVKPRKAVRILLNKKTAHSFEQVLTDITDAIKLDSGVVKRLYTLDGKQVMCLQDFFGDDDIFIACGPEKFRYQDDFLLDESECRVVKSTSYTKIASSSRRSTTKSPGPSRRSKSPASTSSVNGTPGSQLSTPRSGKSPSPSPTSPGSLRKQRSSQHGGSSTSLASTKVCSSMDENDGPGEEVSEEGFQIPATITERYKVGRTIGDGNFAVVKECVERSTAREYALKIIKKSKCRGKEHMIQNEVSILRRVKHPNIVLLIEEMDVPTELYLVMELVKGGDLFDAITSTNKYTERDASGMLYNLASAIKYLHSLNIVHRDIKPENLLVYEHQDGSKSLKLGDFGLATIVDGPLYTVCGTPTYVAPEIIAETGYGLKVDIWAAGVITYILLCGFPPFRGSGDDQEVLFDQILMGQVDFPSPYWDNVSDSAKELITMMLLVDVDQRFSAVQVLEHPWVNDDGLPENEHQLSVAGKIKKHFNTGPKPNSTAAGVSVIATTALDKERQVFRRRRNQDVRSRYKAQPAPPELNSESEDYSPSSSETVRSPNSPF
Method: as §1, §2, §3, §4, §5, §6

[20] = target: 97 kinases (kinase named in endpoint) (Homo sapiens, UniProt P00519)
Sequence of 97 kinases (kinase named in endpoint) (Homo sapiens, UniProt P00519) (P00519 whole entry): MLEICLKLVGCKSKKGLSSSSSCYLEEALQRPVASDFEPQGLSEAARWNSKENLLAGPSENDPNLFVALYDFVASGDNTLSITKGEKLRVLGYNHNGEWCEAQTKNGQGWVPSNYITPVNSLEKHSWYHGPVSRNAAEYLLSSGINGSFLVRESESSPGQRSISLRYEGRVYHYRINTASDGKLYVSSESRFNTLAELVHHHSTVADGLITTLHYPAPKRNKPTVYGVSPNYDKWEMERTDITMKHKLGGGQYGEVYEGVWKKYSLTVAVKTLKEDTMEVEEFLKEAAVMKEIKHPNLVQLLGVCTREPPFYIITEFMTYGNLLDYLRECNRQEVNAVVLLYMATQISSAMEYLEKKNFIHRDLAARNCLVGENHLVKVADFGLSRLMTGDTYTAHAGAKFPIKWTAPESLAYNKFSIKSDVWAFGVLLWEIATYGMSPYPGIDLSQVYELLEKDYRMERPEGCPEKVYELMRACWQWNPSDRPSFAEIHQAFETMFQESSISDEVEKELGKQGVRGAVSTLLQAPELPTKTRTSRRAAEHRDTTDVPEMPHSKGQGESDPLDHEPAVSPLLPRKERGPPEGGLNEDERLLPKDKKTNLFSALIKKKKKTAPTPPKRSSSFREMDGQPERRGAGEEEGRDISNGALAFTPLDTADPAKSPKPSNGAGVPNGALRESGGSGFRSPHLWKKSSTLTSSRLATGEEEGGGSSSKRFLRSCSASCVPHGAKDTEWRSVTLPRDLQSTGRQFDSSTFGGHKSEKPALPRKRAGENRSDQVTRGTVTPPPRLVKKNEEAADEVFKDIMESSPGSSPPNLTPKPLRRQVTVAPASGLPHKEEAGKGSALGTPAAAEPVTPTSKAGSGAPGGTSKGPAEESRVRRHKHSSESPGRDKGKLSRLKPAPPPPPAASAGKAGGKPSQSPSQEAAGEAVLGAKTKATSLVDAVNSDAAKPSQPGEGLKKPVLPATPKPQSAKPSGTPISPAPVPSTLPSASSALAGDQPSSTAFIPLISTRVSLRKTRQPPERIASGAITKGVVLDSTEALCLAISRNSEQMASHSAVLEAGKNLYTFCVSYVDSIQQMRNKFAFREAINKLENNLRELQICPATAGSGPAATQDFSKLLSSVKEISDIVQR
Method: as §1, §2, §3, §4, §5, §6

[21] = target: 97 kinases (kinase named in endpoint) (Homo sapiens, UniProt P09619); conditions: read-out: % Ctrl, PDGFRB
Method: as §1, §2, §3, §4, §5, §6

[22] = target: 97 kinases (kinase named in endpoint) (Homo sapiens, UniProt P17612); conditions: read-out: % Ctrl, PKAC-alpha
Method: as §1, §2, §3, §4, §5, §6

[23] = target: 97 kinases (kinase named in endpoint) (Homo sapiens, UniProt O00444); conditions: read-out: % Ctrl, PLK4
Method: as §1, §2, §3, §4, §5, §6

[24] = target: 97 kinases (kinase named in endpoint) (Homo sapiens, UniProt Q96GD4); conditions: read-out: % Ctrl, AURKB
Method: as §1, §2, §3, §4, §5, §6

[25] = target: 97 kinases (kinase named in endpoint) (Homo sapiens, UniProt P06213); conditions: read-out: % Ctrl, INSR
Method: as §1, §2, §3, §4, §5, §6

[26] = target: 97 kinases (kinase named in endpoint) (Homo sapiens, UniProt P36896); conditions: read-out: % Ctrl, ACVR1B
Method: as §1, §2, §3, §4, §5, §6

[27] = target: 97 kinases (kinase named in endpoint) (Homo sapiens, UniProt P07949); conditions: read-out: % Ctrl, RET
Sequence of 97 kinases (kinase named in endpoint) (Homo sapiens, UniProt P07949) (P07949 29-1114): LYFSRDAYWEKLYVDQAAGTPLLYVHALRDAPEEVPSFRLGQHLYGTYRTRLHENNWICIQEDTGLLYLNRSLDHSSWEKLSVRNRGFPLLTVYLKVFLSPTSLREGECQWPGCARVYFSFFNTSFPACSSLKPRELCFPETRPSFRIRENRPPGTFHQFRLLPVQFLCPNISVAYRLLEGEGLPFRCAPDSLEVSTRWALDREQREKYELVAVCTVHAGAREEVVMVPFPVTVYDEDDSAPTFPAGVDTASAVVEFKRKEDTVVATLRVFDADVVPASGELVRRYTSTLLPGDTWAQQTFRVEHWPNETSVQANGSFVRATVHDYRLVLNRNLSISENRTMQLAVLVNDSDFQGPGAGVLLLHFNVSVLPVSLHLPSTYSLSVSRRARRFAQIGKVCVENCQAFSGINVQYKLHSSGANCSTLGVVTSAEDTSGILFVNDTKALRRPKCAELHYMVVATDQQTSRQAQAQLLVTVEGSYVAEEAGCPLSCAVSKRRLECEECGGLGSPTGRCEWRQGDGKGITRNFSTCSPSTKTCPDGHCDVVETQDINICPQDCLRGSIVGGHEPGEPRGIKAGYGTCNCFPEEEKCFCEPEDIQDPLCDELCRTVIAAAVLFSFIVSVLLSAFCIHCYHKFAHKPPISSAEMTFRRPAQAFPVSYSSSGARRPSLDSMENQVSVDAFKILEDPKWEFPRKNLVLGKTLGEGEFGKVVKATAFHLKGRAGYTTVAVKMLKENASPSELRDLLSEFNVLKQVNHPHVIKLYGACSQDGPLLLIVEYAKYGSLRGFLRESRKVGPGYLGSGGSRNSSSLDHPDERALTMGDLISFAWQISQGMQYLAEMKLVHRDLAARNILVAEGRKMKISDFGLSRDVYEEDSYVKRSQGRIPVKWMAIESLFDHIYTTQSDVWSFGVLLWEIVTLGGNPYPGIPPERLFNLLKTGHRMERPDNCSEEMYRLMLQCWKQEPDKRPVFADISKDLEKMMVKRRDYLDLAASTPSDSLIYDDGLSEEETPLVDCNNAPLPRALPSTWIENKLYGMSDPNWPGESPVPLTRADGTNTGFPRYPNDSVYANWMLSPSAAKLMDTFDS
Method: as §1, §2, §3, §4, §5, §6

[28] = target: 97 kinases (kinase named in endpoint) (Homo sapiens, UniProt Q86V86); conditions: read-out: % Ctrl, PIM3
Method: as §1, §2, §3, §4, §5, §6

[29] = read-out: % Ctrl, ABL1-nonphosphorylated
[30] = read-out: % Ctrl, ABL1-phosphorylated

Compound	remaining binding at 1 µM [1] [%]	remaining binding at 1 µM [2] [%]	remaining binding at 1 µM [3] [%]	remaining binding at 1 µM [4] [%]	remaining binding at 1 µM [5] [%]	remaining binding at 1 µM [6] [%]	remaining binding at 1 µM [7] [%]	remaining binding at 1 µM [8] [%]	remaining binding at 1 µM [9] [%]	remaining binding at 1 µM [10] [%]	remaining binding at 1 µM [11] [%]	remaining binding at 1 µM [12] [%]	remaining binding at 1 µM [13] [%]	remaining binding at 1 µM [14] [%]	remaining binding at 1 µM [15] [%]	remaining binding at 1 µM [16] [%]	remaining binding at 1 µM [17] [%]	remaining binding at 1 µM [18] [%]	remaining binding at 1 µM [19] [%]	remaining binding at 1 µM [20, 29] [%]	also measured
CCCCCCCCCCCCCC(=O)N[C@@H](CC(N)=O)C(=O)N[C@@H](CC(C)C)C(=O)N[C@]1(C)CCCCCCC=CCCC[C@@](C)(C(=O)N[C@@H](CCC(=O)O)C(=O)N[C@@H](CC(C)C)C(=O)N[C@@H](CC(N)=O)C(N)=O)NC(=O)[C@H](CC(C)C)NC(=O)[C@H](CC(C)C)NC(=O)[C@H](CCCNC(=N)N)NC(=O)[C@H](CC(=O)O)NC(=O)[C@H](CC(C)C)NC(=O)[C@H](CCC(=O)O)NC1=O [compound 2012]	100	99	100	90	100	100	99	89	98	90	100	81	100	98	79	100	100	100	86	56	remaining binding at 1 µM [20, 30]: 80%; remaining binding at 1 µM [21]: 94%; remaining binding at 1 µM [22]: 91%; remaining binding at 1 µM [23]: 97%; remaining binding at 1 µM [24]: 100%; remaining binding at 1 µM [25]: 100%; remaining binding at 1 µM [26]: 81%; remaining binding at 1 µM [27]: 99%; remaining binding at 1 µM [28]: 100%
CNC(=O)c1ccc(Nc2ncc(C(F)(F)F)c(NCc3nccnc3N(C)S(C)(=O)=O)n2)cc1 [defactinib]	100	85	48	43	100	82	36	17	86	69	6.7	86	71	100	64	100	1	43	47	37	remaining binding at 1 µM [20, 30]: 51%; remaining binding at 1 µM [21]: 18%; remaining binding at 1 µM [22]: 72%; remaining binding at 1 µM [23]: 39%; remaining binding at 1 µM [24]: 13%; remaining binding at 1 µM [25]: 61%; remaining binding at 1 µM [26]: 83%; remaining binding at 1 µM [27]: 12%; remaining binding at 1 µM [28]: 40%
